According to patent US20080261821A1, “Mechanism-Based Crosslinkers” (THE REGENTS OF TE UNIVERSITY OF CALIFORNIA, priority 2004, published 2008):
The star is where a group is joined. Biotin = O=C1N[C@H]2[C@H](CS[C@H]2CCCCC(=O)*)N1; Ahx = NCCCCCC(=O)O

Assays:
His 6-tagged human Akt1 = target: T1, His 6-tagged human Akt1 (Homo sapiens, UniProt P31749); assay: Crosslinking reactions with AKT1 (SDS-PAGE, streptavidin-HRP blot); assay type: biochemical; details: for crosslinking of peptide to AKT1 (formation of the peptide-AKT1 complex): peptide incubated with AKT1 in the presence of dialdehyde crosslinker 2, FIG. 2A
T1 construct: purchased Calbiochem
T1 sequence (P31749 whole entry): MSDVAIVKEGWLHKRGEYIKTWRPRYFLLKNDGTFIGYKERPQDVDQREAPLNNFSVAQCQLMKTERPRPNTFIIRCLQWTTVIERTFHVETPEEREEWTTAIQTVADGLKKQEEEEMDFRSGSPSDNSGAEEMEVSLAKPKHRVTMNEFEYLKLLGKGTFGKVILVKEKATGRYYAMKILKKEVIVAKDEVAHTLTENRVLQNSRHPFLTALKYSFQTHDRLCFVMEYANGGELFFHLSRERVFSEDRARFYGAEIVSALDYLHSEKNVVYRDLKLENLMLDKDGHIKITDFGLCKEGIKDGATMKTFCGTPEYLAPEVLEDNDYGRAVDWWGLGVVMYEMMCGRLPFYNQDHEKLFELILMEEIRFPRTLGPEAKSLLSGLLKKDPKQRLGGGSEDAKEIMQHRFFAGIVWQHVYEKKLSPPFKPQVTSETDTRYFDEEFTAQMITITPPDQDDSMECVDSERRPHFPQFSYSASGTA
Procedure: His 6-tagged human Akt1 (10 ng), 1 μM peptide 3 or 4, and 20 µM crosslinker 2 were incubated in 30 μL of 25 mM HEPES (pH=7.5), 150 mM NaCl, 2 mM MgCl2, 20 μM BME for 20 min at rt. After 20 min, 6 μL of 6× loading buffer was added to quench the reactions. The sample mixtures (10 μL) were resolved by 8-16% SDS-PAGE, transferred to nitrocellulose, and the membrane was probed with streptavidin-HRP.
To evaluate dialdehyde 2 as a mechanism-based crosslinker, a set of peptide substrate derivatives with and without an engineered cysteine (biotin-ZRPRTSSF-OH 3, fluorescein-ZZRPRTSSF-OH 4, biotin-ZRPRTSCF-OH 5 and fluorescein-ZZRPRTSCF—OH 6) were incubated with the kinase, AKT1 (Alessi et al., FEBS Lett. 399: 333-338 (1996)). […] As expected, the peptide-AKT1 covalent complex runs at a slightly higher molecular weight than unmodified AKT1 on SDS-PAGE.

AKT kinase = target: T2, AKT kinase (Homo sapiens, UniProt P31749); assay: Kinase cell lysate crosslinking (avidin-agarose pull-down, anti-AKT blot); assay type: biochemical; details: 100 ng AKT kinase, 2 μg HeLa cell lysate; for anti-AKT signal after avidin-agarose pull-down of the biotinylated substrate: 1 μM substrate, 100 μM crosslinker 2, 90 minutes
T2 construct: host or cells: added to HeLa cell lysate
T2 sequence (P31749 whole entry): as above
Procedure: Kinase cell lysate crosslinking details: 1 μM of Akt substrate (Biotin-PEG-RPRTSCF-OH) and 100 ng of AKT kinase was added to 2 μg of HeLa cell lysate. 100 μM of the crosslinker 2 was added to cell lysate and the reaction was allowed to proceed for 90 minutes. The lysate were poured over avidin-agarose beads and the beads were washed with wash buffer. The bound protein was eluted from the agarose beads with loading buffer and then subjected to SDS-PAGE. The gel was transferred to nitrocellulose and probed with anti-AKT. […] As a control, the non-cysteine containing AKT substrate (Biotin-PEG-RPRTSSF-OH) was used in the crosslinking reaction described above. No signal was observed.

Molecule | crosslinking of peptide to AKT1 (formation of the peptide-AKT1 complex) (His 6-tagged human Akt1) | anti-AKT signal after avidin-agarose pull-down of the biotinylated substrate (AKT kinase) | other results
Nc1ncnc2c1ncn2C1OC(COC(=O)c2ccc(C=O)c(C=O)c2)C(O)C1O (stereo not shown) [dialdehyde 2] | – | – | crosslinking of AKT1 and peptide by the crosslinker (formation of the peptide-AKT1 complex) (His 6-tagged human Akt1; dialdehyde 2 incubated with cysteine-containing peptide 5 and AKT1, FIG. 2A lane 2): rapid formation of the peptide-AKT1 complex was observed; anti-AKT signal after crosslinking in cell lysate by the crosslinker (AKT kinase; 100 μM crosslinker 2 with 1 μM Biotin-PEG-RPRTSCF-OH, 90 minutes): positive signal
{Biotin-Ahx}-RPRTSCF-OH [peptide 5] | rapid formation of the peptide-AKT1 complex was observed | – | –
Biotin-PEG-RPRTSCF-OH | – | positive signal | –
Fluorescein-Ahx-Ahx-Arg-Pro-Arg-Thr-Ser-Cys-Phe-OH ({fluorescein-Ahx-Ahx}-RPRTSCF-OH) [peptide 6] | identical results | – | –
{Biotin-Ahx}-RPRTSSF-OH [peptide 3, reference compound] | no detectable crosslinking | – | –
Biotin-PEG-RPRTSSF-OH [reference compound] | – | No signal | –
